Results on five compounds are retold here after publication PMC7138916 (Pharmacology Research & Perspectives, 2020).

Series [1] can be described thus: Bidirectional permeability in parental MDCK cells. The format is in vitro ADME, Canine. To be noted: dog, MDCK.
The next series deals with human P-gp (MDR1) (Homo sapiens, UniProt P08183). Nature of the series: Bidirectional permeability and efflux ratio in MDR1‐MDCK cells. The format is in vitro ADME. To be noted: human; for Papp A→B at 2 h, 1 μmol/L / Papp B→A at 2 h, 1 μmol/L: MDCK-MDR1.
human P-gp (MDR1), sequence (P08183 whole entry): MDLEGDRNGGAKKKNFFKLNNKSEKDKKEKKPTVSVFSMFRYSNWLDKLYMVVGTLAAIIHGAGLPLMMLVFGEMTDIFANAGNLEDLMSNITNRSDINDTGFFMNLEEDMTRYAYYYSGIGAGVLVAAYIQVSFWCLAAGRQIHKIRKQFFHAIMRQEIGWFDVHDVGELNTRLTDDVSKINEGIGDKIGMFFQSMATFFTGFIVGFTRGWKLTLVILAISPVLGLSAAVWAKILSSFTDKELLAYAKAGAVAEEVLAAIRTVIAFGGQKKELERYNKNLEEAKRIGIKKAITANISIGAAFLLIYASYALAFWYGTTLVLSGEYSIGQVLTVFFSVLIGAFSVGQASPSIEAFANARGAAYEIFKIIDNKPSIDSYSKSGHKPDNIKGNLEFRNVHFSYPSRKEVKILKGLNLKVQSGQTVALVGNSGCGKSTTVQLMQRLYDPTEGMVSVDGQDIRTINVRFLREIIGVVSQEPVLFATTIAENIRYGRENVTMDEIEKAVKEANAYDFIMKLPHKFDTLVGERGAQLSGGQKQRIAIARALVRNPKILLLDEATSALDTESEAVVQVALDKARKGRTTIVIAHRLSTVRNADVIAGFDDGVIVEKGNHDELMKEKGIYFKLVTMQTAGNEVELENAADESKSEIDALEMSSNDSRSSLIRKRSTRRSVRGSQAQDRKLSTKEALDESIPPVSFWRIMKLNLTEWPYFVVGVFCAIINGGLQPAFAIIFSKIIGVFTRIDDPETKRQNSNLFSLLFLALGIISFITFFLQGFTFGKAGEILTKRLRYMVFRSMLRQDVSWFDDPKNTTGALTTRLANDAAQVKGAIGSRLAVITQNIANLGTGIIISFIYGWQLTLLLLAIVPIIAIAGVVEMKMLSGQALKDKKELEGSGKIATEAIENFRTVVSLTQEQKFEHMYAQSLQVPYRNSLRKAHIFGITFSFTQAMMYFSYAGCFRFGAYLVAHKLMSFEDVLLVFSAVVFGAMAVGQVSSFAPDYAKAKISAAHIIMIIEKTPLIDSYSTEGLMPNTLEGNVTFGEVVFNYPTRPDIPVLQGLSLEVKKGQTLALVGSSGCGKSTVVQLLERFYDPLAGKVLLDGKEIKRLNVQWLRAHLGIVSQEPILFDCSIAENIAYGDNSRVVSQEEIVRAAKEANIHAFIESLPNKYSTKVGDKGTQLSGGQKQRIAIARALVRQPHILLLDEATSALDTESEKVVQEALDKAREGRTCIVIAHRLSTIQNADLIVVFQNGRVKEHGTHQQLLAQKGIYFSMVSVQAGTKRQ
Series [2] is described as follows: Bidirectional permeability and efflux ratio in Caco‐2 cells. The format is in vitro ADME, human. As to conditions: human; for Papp A→B at 2 h, 5 μmol/L / Papp B→A at 2 h, 5 μmol/L: Caco-2. For orientation: Caco-2 monolayers are a common model of the intestinal barrier.
The conditions of series [3]: rat; ref 20 (Summerfield et al); cited from earlier work.
Series [4] in a line: Rat pharmacokinetic study, IV single bolus. To be noted: male, Sprague-Dawley, in vivo, iv.
The subject of series [5] is efflux transporters (eg, P‐gp, BCRP, MRPs). The series is described as follows: Classification as efflux transporter substrate. As to conditions: for Efflux transporter substrate: Yes/No; for Class (based on membrane permeability and ER value): parental MDCK, MDR1‐MDCK, and Caco‐2 cell lines.
A short description of series [6]: Rat brain and blood microdialysis at steady state. As to conditions: male, Sprague-Dawley, rat, in vivo, iv, C m,brain, steady‐state unbound concentration in brain (right striatum), microdialysis, IV infusion, mean ± SD.
The subject of another series is MDCK‐MDR1‐NKI cell lines. As to conditions: cited from earlier work.
A further series has as its system MDCK cell line. The series is described as follows: Bidirectional permeability in parental MDCK cells. The format is in vitro ADME, Canine. As to conditions: MDCK cell line, 1 μmol/L, 2 hours, 10 uM Cyclosporin A, n = 4.
In the next series the test system is Caco‐2 cell line. Nature of the series: Bidirectional permeability and efflux ratio in Caco‐2 cells. To be noted: Caco‐2 cell line, P app(B–A)/P app(A–B). The format is in vitro ADME, human.
For series [7] the following is noted: cited from earlier work.
Another series deals with P‐gp. As to conditions: cited from earlier work.
Series [8] concerns P‐glycoprotein. To be noted: digoxin efflux, rat colon; cited from earlier work.
The test system of series [9] is P‐glycoprotein. As to conditions: digoxin efflux, human colon, cited from earlier work.

Each structure is given as a SMILES string. Read-outs that look alike come from different tables or passages of the source.

For orientation: Papp A→B means the apparent permeability from the apical to the basolateral side of a cell layer. A word on the Papp B→A: it is how fast a substance crosses the layer from the basolateral side. By Papp is commonly meant the rate of passage across a membrane or cell layer, normalised by area and donor concentration. What is called efflux ratio is a quotient of directional permeabilities that is used to spot active efflux. The Vd is a proportionality between amount in the body and measured concentration, not a real space. Read a high Vd as wide distribution into tissue. A word on the clearance: it is a measure of how efficiently the substance is removed, as volume per time. The low end stands for inefficient removal, the high end for efficient removal. Usually half-life stands for the time in which the quantity being followed falls by half. `CNS(=O)(=O)Cc1ccc2[nH]cc(CCN(C)C)c2c1` [Sumatriptan, sumatriptan]: in series [1], the Papp A→B at 2 h, 1 μmol/L stood at 1.07 ± 0.08 ×10⁻⁶ cm/s; the Papp B→A at 2 h, 1 μmol/L was determined as 2.21 ± 0.37 ×10⁻⁶ cm/s; the Papp at 2 h, 1 μmol/L was found to be 1.64 ± 0.66 ×10⁻⁶ cm/s. For the same compound, at human P-gp (MDR1), the Papp A→B at 2 h, 1 μmol/L is 0.683 ± 0.04 ×10⁻⁶ cm/s and the Papp B→A at 2 h, 1 μmol/L was 1.54 ± 0.59 ×10⁻⁶ cm/s. For the same compound, the efflux ratio at 2 h, 1 μmol/L at human P-gp (MDR1) (MDCK-MDR1, Efflux ratio, MDR1‐MDCK cell line, P app(B–A)/P app(A–B)) was 2.25. In series [2], the Papp A→B at 2 h, 5 μmol/L is 0.904 ± 0.283 ×10⁻⁶ cm/s and the Papp B→A at 2 h, 5 μmol/L was determined as 1.91 ± 0.6 ×10⁻⁶ cm/s. For the same compound, the efflux ratio at 2 h, 5 μmol/L in series [2] (Caco-2, Efflux ratio, Caco‐2 cell line, P app(B–A)/P app(A–B)) was 2.12. Besides, the “steady‐state unbound concentration in brain lower than in plasma” value in series [3] is “about 20 fold”. Also, in series [4], the Vd came to 3.11 ± 0.03 L/kg, the clearance turned out to be 59.1 ± 5.8 mL/min/kg and the half-life was 58.8 ± 0.66 min. Further, in series [5], the Efflux transporter substrate result is reported as “Yes”; the “Class (based on membrane permeability and ER value)” value (from here on “Class”) was “Class II”. Also, the concentration at 6 h in series [6] worked out at 845 ± 439 nM.

Take `C=C[C@H]1C[N@@]2CC[C@H]1C[C@@H]2[C@@H](O)c1ccnc2ccc(OC)cc12` [Quinidine, quinidine]: the permeability result in the series with MDCK‐MDR1‐NKI cell lines is given as “about 60 × 10^−6 cm/sec”. For the same compound, the concentration at 6 h in series [6] was found to be 552 ± 126 nM.

For `CC(C)NCC(O)COc1cccc2ccccc12` (stereo not shown) [Propranolol, propranolol], in series [1], the Papp A→B at 2 h, 1 μmol/L worked out at 13.7 ± 5.3 ×10⁻⁶ cm/s; the Papp B→A at 2 h, 1 μmol/L came out at 8.37 ± 3.8 ×10⁻⁶ cm/s; the Papp at 2 h, 1 μmol/L came to 11 ± 5.2 ×10⁻⁶ cm/s. Further, the “Average P app” value with MDCK cell line was “about 11.0 10^−6 cm/s”. Moreover, on human P-gp (MDR1), the Papp A→B at 2 h, 1 μmol/L came to 18.9 ± 2.6 ×10⁻⁶ cm/s and the Papp B→A at 2 h, 1 μmol/L is 16.8 ± 0.5 ×10⁻⁶ cm/s. Further, in [2], the Papp A→B at 2 h, 5 μmol/L was 21.2 ± 3.6 ×10⁻⁶ cm/s and the Papp B→A at 2 h, 5 μmol/L amounted to 13.8 ± 0.5 ×10⁻⁶ cm/s. Besides, in the series on Caco‐2 cell line, the Efflux ratio was 0.654. The Efflux ratio entry in the series on Caco‐2 cell line (listed as propranolol) was “less than 2.0”. The “reported mean values of rat plasma CL” value in series [7] is reported as 68 mL/min/kg. In series [4], this compound showed a Vd of 4.64 ± 0.7 L/kg, a clearance of 82.8 ± 12.5 mL/min/kg and a half-life of 56.6 ± 3.72 min. Besides, in [5], the Efflux transporter substrate result is on record as “No”; the “Class” value is listed as “Class I”. Also, the concentration at 6 h in series [6] worked out at 1490 ± 240 nM.

Regarding `Cc1c(O)cccc1C(=O)N[C@@H](CSc1ccccc1)[C@H](O)CN1C[C@H]2CCCC[C@H]2C[C@H]1C(=O)NC(C)(C)C` [neflinivir], the permeability in the series with P‐gp is 197 ×10⁻⁶ cm/s.

For `C[C@H]1O[C@@H](O[C@H]2[C@@H](O)C[C@H](O[C@H]3[C@@H](O)C[C@H](O[C@H]4CC[C@@]5(C)[C@H](CC[C@@H]6[C@@H]5C[C@@H](O)[C@]5(C)[C@@H](C7=CC(=O)OC7)CC[C@]65O)C4)O[C@@H]3C)O[C@@H]2C)C[C@H](O)[C@@H]1O` [Digoxin, digoxin], in [1], the Papp A→B at 2 h, 1 μmol/L came to 2.22 ± 0.34 ×10⁻⁶ cm/s; the Papp B→A at 2 h, 1 μmol/L worked out at 2.73 ± 0.45 ×10⁻⁶ cm/s; the Papp at 2 h, 1 μmol/L turned out to be 2.48 ± 0.46 ×10⁻⁶ cm/s. Besides, in [2], the Papp A→B at 2 h, 5 μmol/L is 0.477 ± 0.088 ×10⁻⁶ cm/s and the Papp B→A at 2 h, 5 μmol/L worked out at 23 ± 1.6 ×10⁻⁶ cm/s. For the same compound, in the series with P‐glycoprotein [8], the “J max (maximal net flux)” value is reported as 2.2 ± 0.3 nmol/h/cm^2. For the same compound, in the series with P‐glycoprotein [9], the “J max (maximal net flux)” value was 3.1 ± 0.8 nmol/h/cm^2. Besides, the EC50 with P‐glycoprotein [9] (read-out: EC50 (the concentration at which half‐maximal flux was achieved)) is 58.7 ± 15.5 µM. In series [4], the Vd is 0.376 ± 0.013 L/kg, the clearance worked out at 9.1 ± 1.3 mL/min/kg and the half-life is 78 ± 15.6 min. In addition, in series [5], the Efflux transporter substrate entry was “Yes”; the “Class” value was “Class II”.
